In PubChem BioAssay (NCI) one finds TGI data, which are given here for 15 compounds.

Among the test systems are NCI-H226 lung; HL-60(TB) leukemia; OVCAR-5 ovarian; ACHN renal; SNB-19 CNS; UO-31 renal; UACC-62 melanoma; NCI-H460 lung; HCC-2998 colon; T-47D breast.
What all share (test): inhibition of tumour cell growth, NCI panel, 48 h

Molecules are shown by their SMILES.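 These data come from cells grown in 96-well plates and exposed to compound for 48 hours at five concentrations. TGI: concentration producing complete growth inhibition.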 Bounds are passed on as bounds.

For the compound `Cc1cn(C2CC(OC(c3ccccc3)(c3ccccc3)c3ccccc3)C(COC(c3ccccc3)(c3ccccc3)c3ccccc3)O2)c(=O)[nH]c1=O` (configuration not stated), the TGI in the test with NCI-H226 lung is 88.7 µM; with HL-60(TB) leukemia, greater than 100 µM; with OVCAR-5 ovarian, greater than 100 µM; in the test with ACHN renal, greater than 100 µM; with SNB-19 CNS, greater than 100 µM; in the test with UO-31 renal, greater than 100 µM. Further, the TGI in the test with UACC-62 melanoma, in the test with NCI-H460 lung and in the test on HCC-2998 colon was greater than 100 µM in each case.

For `Cc1ccc(-n2cc(-c3ccc(Cl)cc3)c3c2N=CN2NC(c4ccco4)=NC32)cc1` (configuration not stated), the TGI with NCI-H226 lung is 68.6 µM; in the test on HL-60(TB) leukemia it was greater than 100 µM; with OVCAR-5 ovarian, greater than 100 µM; in the test with ACHN renal it was 24.5 µM; in the test on SNB-19 CNS it was 42.6 µM; in the test on UO-31 renal, 47.5 µM. In addition, the TGI in the test on UACC-62 melanoma is 31.5 µM; in the test on NCI-H460 lung, greater than 100 µM; in the test on HCC-2998 colon it was greater than 100 µM.

On to `C=C1CC2C(=O)N(c3ccccc3)C(=O)C2CC1n1[nH]c(=O)n(Cc2ccccc2)c1=O` (configuration not stated), for which the TGI in the test on NCI-H226 lung, in the test on HL-60(TB) leukemia, in the test on OVCAR-5 ovarian, in the test with ACHN renal, in the test with SNB-19 CNS and in the test with UO-31 renal was greater than 100 µM each time. Moreover, the TGI in the test on UACC-62 melanoma, in the test on NCI-H460 lung and in the test on HCC-2998 colon was greater than 100 µM throughout.

`C/C(=N\Nc1nc2ccccc2s1)c1cccnn1`: the TGI with NCI-H226 lung is 59.3 µM; in the test on OVCAR-5 ovarian, greater than 100 µM; in the test with ACHN renal, 17 µM; in the test with SNB-19 CNS, greater than 100 µM; in the test with UO-31 renal, 71.2 µM; in the test with UACC-62 melanoma it was 20 µM. The values for the TGI in the test with NCI-H460 lung and with HCC-2998 colon were 15.1 µM and 89.9 µM, respectively.

With `C=C1CC=CC(C)(C)C1C/C=C(\C)C(O)CBr` (configuration not stated), the TGI with NCI-H226 lung, in the test with HL-60(TB) leukemia, in the test on OVCAR-5 ovarian, in the test on ACHN renal, in the test with SNB-19 CNS and with UO-31 renal was greater than 100 µM in each case. Further, the TGI in the test on UACC-62 melanoma, in the test with NCI-H460 lung and with HCC-2998 colon was greater than 100 µM each time.

With `CCN(CC)C(=S)SS(=O)(=O)c1ccc(C)cc1`, the TGI in the test with NCI-H226 lung was greater than 100 µM; in the test with OVCAR-5 ovarian, greater than 100 µM; in the test on ACHN renal, greater than 100 µM; in the test on SNB-19 CNS, greater than 100 µM; with UO-31 renal it was 51.2 µM; in the test with T-47D breast it was greater than 100 µM. For the same compound, the TGI with UACC-62 melanoma, in the test on NCI-H460 lung and in the test on HCC-2998 colon was greater than 100 µM in each case.

As to `COC(=O)c1cc(C(=O)OC)cc(-c2ccc3c(c2)-c2nc4c(c(-c5ccc(OC)cc5)c2CC3)CCc2ccc(-c3cc(C(=O)OC)cc(C(=O)OC)c3)cc2-4)c1`, the TGI with NCI-H226 lung is greater than 100 µM; in the test on OVCAR-5 ovarian, 31.8 µM; in the test on ACHN renal, greater than 100 µM; in the test with SNB-19 CNS, greater than 100 µM; with UO-31 renal, greater than 100 µM; in the test on T-47D breast, greater than 100 µM. Moreover, the TGI with UACC-62 melanoma, with NCI-H460 lung and in the test with HCC-2998 colon was greater than 100 µM in each case.

`COC(=O)C(=O)C(C(=O)C(=O)Nc1cc([N+](=O)[O-])ccc1C#N)c1nc2ccccc2[nH]c1=O` (configuration not stated): the TGI in the test with NCI-H226 lung, in the test on HL-60(TB) leukemia, in the test on ACHN renal, with SNB-19 CNS, in the test on UO-31 renal and in the test on UACC-62 melanoma was greater than 100 µM throughout. The TGI in the test on NCI-H460 lung and in the test with HCC-2998 colon was greater than 100 µM throughout.

Consider `c1ccc([P+](Cc2csnn2)(c2ccccc2)c2ccccc2)cc1`, for which the TGI in the test on NCI-H226 lung, in the test on HL-60(TB) leukemia, with OVCAR-5 ovarian, with ACHN renal, in the test with SNB-19 CNS and in the test on UO-31 renal was greater than 100 µM in each case. Moreover, the TGI in the test with UACC-62 melanoma, in the test on NCI-H460 lung and in the test on HCC-2998 colon was greater than 100 µM throughout.

With `Clc1cccc(C2ON=C(c3ccccc3)N2C23CC4CC(CC(C4)C2)C3)c1Cl` (configuration not stated), the TGI with NCI-H226 lung, in the test on OVCAR-5 ovarian, in the test on ACHN renal, with SNB-19 CNS, in the test on UO-31 renal and in the test on T-47D breast was greater than 10 µM in each case. Also, the TGI in the test with UACC-62 melanoma, in the test with NCI-H460 lung and with HCC-2998 colon was greater than 10 µM in each case.

As to `CCC1(CC)C(=O)NC(=S)N=C1N`, the TGI with NCI-H226 lung, with HL-60(TB) leukemia, with OVCAR-5 ovarian, with ACHN renal, in the test with SNB-19 CNS and in the test with UO-31 renal was greater than 100 µM in each case. Further, the TGI in the test with UACC-62 melanoma and with NCI-H460 lung was greater than 100 µM throughout.

For the compound `COc1ccc(N2C(=O)C3c4[nH]c5ccccc5c4C4C(C)CCCC4C3C2=O)cc1` (configuration not stated), the TGI in the test with NCI-H226 lung, with OVCAR-5 ovarian, with ACHN renal, in the test with SNB-19 CNS, with UO-31 renal and with T-47D breast was greater than 100 µM throughout. Further, the TGI in the test with UACC-62 melanoma, with NCI-H460 lung and with HCC-2998 colon was greater than 100 µM throughout.

As to `CCOC(=O)/C(=C/c1ccco1)P(=O)(OCC)OCC`, the TGI in the test with NCI-H226 lung, in the test with HL-60(TB) leukemia, in the test on OVCAR-5 ovarian, with ACHN renal, in the test with UO-31 renal and in the test on UACC-62 melanoma was greater than 100 µM each time. Besides, the TGI in the test on NCI-H460 lung and with HCC-2998 colon was greater than 100 µM throughout.

For `c1ccc(-c2ccc(N=NN3CCCC3)cc2)cc1`, the TGI in the test on NCI-H226 lung, in the test with OVCAR-5 ovarian, with ACHN renal, with SNB-19 CNS, in the test on UO-31 renal and in the test on T-47D breast was greater than 100 µM in each case. In addition, the TGI in the test on UACC-62 melanoma and in the test on NCI-H460 lung was greater than 100 µM each time.

Regarding `NC(=O)NC(=NCc1ccccc1)NCc1ccccc1`, the TGI in the test on ACHN renal, in the test on SNB-19 CNS, in the test with UO-31 renal, with UACC-62 melanoma, with NCI-H460 lung and in the test on HCC-2998 colon was greater than 100 µM each time.
